Series [1] has as its system clinical pancreatic cancer sample xenograft. Kind of series: Advanced orthotopic pancreatic cancer model from a clinical sample, survival. Type of series: in vivo. Conditions: clinical sample in SCID mice, treatment from day 31; gemcitabine 150 mg/kg i.p. twice a week; PRX321 100 ug/kg i.p. twice a day days 31-35; non-treatment 62 days.
Description: Primary and orthotopic pancreatic cancer model using a clinical sample. […] Viable tumor tissue from specimen was cut into small pieces (3% 3% 3 mm) and implanted in the pancreas of 5- to 6-week-old male SCID mice. Primary xenografts were propagated continuously in SCID mice for in vivo testing. Clinical sample-bearing mice were also treated after day 31 by the same protocol as described above.
(§1) Statistical analysis. The mean tumor volume in therapeutic and control groups was analyzed by ANOVA. Survival curves were generated by Kaplan-Meier method and compared by using the log-rank test.
These mice, when advanced disease developed, were divided into four groups on day 31 and treated as described in Materials and Methods. […] Group 2 animals received gemcitabine (150 mg/kg) by i.p. administration twice a week as long as the experiment lasted.
In the next series the test system is SW1990 cells. The series can be described thus: cells. Type of series: cell-based, human.
For series [2] the following is noted: mice receiving optimal doses; data not shown.
The test system of a further series is Capan-1 cells. Kind of series: cells. Type of series: cell-based, human.
Series [3] has as its system MIA-PaCa-2-GFP tumors. The series can be described thus: Early pancreatic tumor model, orthotopic MIA-PaCa-2-GFP, whole-body imaging and survival. Type of series: in vivo, nude mice.
Description: (§2) Surgical orthotopic implantation of MIA-PaCa-2-GFP tumors. MIA-PaCa-2-GFP cells were injected s.c. into the right dorsal flank of nude mice. Pancreatic tumors, grown s.c. in nude mice, were cut with scissors and minced into f3% 3% 3-mm pieces. For orthotopic surgery, the pancreas was carefully exposed, and tumor chunks were transplanted on the middle of the pancreas with a 6-0 Dexon surgical suture (Davis-Geck, Inc.). The pancreas was then returned to the peritoneal cavity, the abdominal wall, and the skin was closed with 6-0 Dexon sutures.
Experimental design and treatment. For early pancreatic cancer model, primary tumor lesions were detected by external whole-body imaging on day 4 after transplantation. Once the tumors were visualized, mice were randomized into four groups of 10 each. Treatment was initiated on day 5. For advanced pancreatic cancer model, primary and metastasis tumor lesions were detected by external whole-body imaging on day 14 post-transplantation of tumor chunk and randomized into four groups of 10 mice each. Treatment was initiated on day 15.
as §1
Treatment was initiated on day 5 after transplantation. […]
Series [4] relates to MIA-PaCa-2-GFP tumors. Kind of series: Advanced metastatic pancreatic tumor model, orthotopic MIA-PaCa-2-GFP, whole-body imaging and survival. Type of series: in vivo, nude mice.
Description: as §2
For advanced pancreatic cancer model, primary and metastasis tumor lesions were detected by external whole-body imaging on day 14 post-transplantation of tumor chunk and randomized into four groups of 10 mice each. Treatment was initiated on day 15.
The mean tumor volume in therapeutic and control groups was analyzed by ANOVA. Survival curves were generated by Kaplan-Meier method and compared by using the log-rank test.
Group 2 animals received gemcitabine (150 mg/kg) by i.p. administration twice a week as long as the experiment lasted.
The test system of another series is HS766T cells. The series can be described thus: Protein synthesis inhibition assay (cytotoxicity), HS766T. Type of series: cell-based. Conditions: Homo sapiens, read-out: IC50 (50% protein synthesis inhibition), single agent.
A further series deals with MIA-PaCa-2 cells. The series can be described thus: cells. Type of series: cell-based, human.
[5] abbreviates: Homo sapiens, read-out: IC50 (50% protein synthesis inhibition), single agent.

Description for HS766T cells: Protein synthesis inhibition assay and assessment of synergism or antagonism. […] On the basis of the isobologram analysis for mutually exclusive effects, the CI value was calculated as follows:

Take `Nc1ccn([C@@H]2O[C@H](CO)[C@@H](O)C2(F)F)c(=O)n1` [Gemcitabine]: the Median survival time in series [1] stood at 86 days; in the series with MIA-PaCa-2-GFP tumors [3] (non-treatment group 27 days), 54 days; with MIA-PaCa-2-GFP tumors [4] (non-treatment group 28 days), 34 days. The IC50 in the series on SW1990 cells (setting [5]) is 1000 nM; in the series on Capan-1 cells (setting [5]), 3.2 nM; in the series with HS766T cells it was 14 nM; in the series on MIA-PaCa-2 cells (setting [5]), 22 nM. Also, the “IC75 (75% protein synthesis inhibition)” value is 3,000 nmol/L in the series on SW1990 cells (single agent), 9 nM in the series with Capan-1 cells (single agent) and 280 nM with MIA-PaCa-2 cells (single agent). Moreover, the “Visible signs of toxicity (weight loss, inactivity)” value in series [2] is recorded as “no visible signs of toxicity”. In addition, the “Tumor growth compared with non-treatment group (whole-body imaging)” value is “reduction in the rate of tumor growth” in the series on MIA-PaCa-2-GFP tumors [3] (treatment from day 5, gemcitabine 150 mg/kg i.p. twice a week, PRX321 100 ug/kg i.p. twice a day for 5 days) and “reduction in the rate of tumor growth” with MIA-PaCa-2-GFP tumors [4] (treatment from day 15, gemcitabine 150 mg/kg i.p. twice a week, PRX321 100 ug/kg i.p. twice a day for 5 days). Also, in the series on MIA-PaCa-2-GFP tumors [4] (day 28), the “Reduction in tumor size on day 28 compared with the no treatment group” value is on record as 39.8%.

(Values after patent US9629899B2, “Targeted cargo protein combination therapy” (priority 2008, dated 2017).)
